Source: ChEMBL document CHEMBL1177803, “In vitro antituberculosis activities of the constituents isolated from Haloxylon salicornicum” (2010)
Values after ≈ are worked out from the molar mass of the structure shown. Active and inactive are the calls of the source. No cut-off for these calls is given here.

What was measured:
[1] = system: Mycobacterium tuberculosis; test: Antituberculosis activity against Mycobacterium tuberculosis H37Rv ATCC 27294 after 2 weeks by microbroth dilution method; type: functional; conditions: H37Rv ATCC 27294, 336 h
[2] = system: Mycobacterium tuberculosis; test: Antituberculosis activity against Mycobacterium tuberculosis H37Rv ATCC 27294 in stationary phase culture at pH 5.8 up to 200 ug/ml after 3 days followed by washout from day 4 to week 4 by microbroth dilution method; type: functional, organism-based

Structure (SMILES)	MIC [1] [µg/mL]	Activity [2]
OCCCCCCCCCCCCCCCCCCCCC1CCCCC1	100 (≈ 263 µM)	inactive
OCCCCCCCCCCCCCCCCCCCCCCC1CCCCC1	100 (≈ 245 µM)	inactive
CCCCCCCCCCCCCCCC(=O)O[C@H]1CC[C@]2(C)[C@H]3CC=C4[C@H]5CC(C)(C)CC[C@]5(C)CC[C@@]4(C)[C@]3(C)CC[C@H]2C1(C)C	100 (≈ 150 µM)	inactive
CC[C@H](/C=C/[C@@H](C)[C@H]1CC[C@H]2[C@@H]3CCC4=C[C@@H](O[C@@H]5O[C@H](CO)[C@@H](O)[C@H](O)[C@H]5O)CC[C@]4(C)[C@H]3CC[C@]12C)C(C)C	100 (≈ 174 µM)	inactive
CC[C@H](/C=C/[C@@H](C)[C@H]1CC[C@H]2[C@@H]3CCC4=C[C@@H](O[C@@H]5O[C@@H](C)[C@H](O)[C@@H](O)[C@H]5O)CC[C@]4(C)[C@H]3CC[C@]12C)C(C)C	50 (≈ 89.5 µM)	inactive
CCC(CC[C@@H](C)[C@H]1CC[C@H]2[C@@H]3CC=C4C=CCC[C@]4(C)[C@H]3CC[C@]12C)C(C)C (some centres not stated)	100 (≈ 252 µM)	inactive
C[C@H]1[C@H](C)CC[C@]2(C)CC[C@]3(C)C(=CC[C@@H]4[C@@]5(C)CCC[C@H](C)[C@@H]5CC[C@]43C)[C@H]12	100 (≈ 252 µM)	inactive
CCCCC(O)CCCCCCCCCCCCCCCCCCCC(=O)CCC (configuration not stated)	100 (≈ 235 µM)	inactive
CC(C)[C@@H](C)/C=C/[C@@H](C)[C@H]1CC[C@@H]2[C@]1(C)CC=C1[C@]23C=C[C@]2(C[C@@H](O)CC[C@]12C)OO3	100 (≈ 234 µM)	inactive
COc1c(O)cc2ccc(=O)oc2c1OC	100 (≈ 450 µM)	inactive
CC(C)[C@@H](C)/C=C/[C@@H](C)[C@H]1CC[C@@H]2[C@]1(C)CC[C@H]1[C@]23C=C[C@]2(C[C@@H](O)CC[C@]12C)OO3 [ERGOSTEROL PEROXIDE]	100 (≈ 233 µM)	inactive
O=C(/C=C\C=C/CCCCCCCCCCCCCCCCCO)N1CCCCC1 [HALOXYLINE A]	100 (≈ 238 µM)	inactive
O=C(/C=C\C=C/CCCCCCCCCCCCCCCCCO)N1CCC[C@@H](O)C1 [HALOXYLINE B]	50 (≈ 115 µM)	inactive
NNC(=O)c1ccncc1 [ISONIAZID]	0.02 (≈ 0.146 µM)	inactive
C=C(C)[C@@H]1CC[C@]2(C)CC[C@]3(C)[C@H](CC[C@@H]4[C@@]5(C)CC[C@H](OC(C)=O)C(C)(C)[C@@H]5CC[C@]43C)[C@@H]12 [LUPENYL ACETATE]	100	inactive
C=C(C)[C@@H]1CC[C@]2(C)CC[C@]3(C)[C@H](CC[C@@H]4[C@@]5(C)CC[C@H](O)C(C)(C)[C@@H]5CC[C@]43C)[C@@H]12 [LUPEOL]	100 (≈ 234 µM)	inactive
CC[C@H](/C=C/[C@@H](C)[C@H]1CC[C@H]2[C@@H]3CC=C4C[C@@H](O[C@@H]5O[C@H](CO)[C@@H](O)[C@H](O)[C@H]5O)CC[C@]4(C)[C@H]3CC[C@]12C)C(C)C [STIGMASTEROL GLUCOSIDE]	50 (≈ 87 µM)	inactive
CC[C@H](/C=C/[C@@H](C)[C@H]1CC[C@H]2[C@@H]3CC=C4C[C@@H](O)CC[C@]4(C)[C@H]3CC[C@]12C)C(C)C [STIGMASTEROL]	100 (≈ 242 µM)	inactive
C[C@H]1[C@H](C)CC[C@]2(C(=O)O)CC[C@]3(C)C(=CC[C@@H]4[C@@]5(C)CC[C@H](O)C(C)(C)[C@@H]5CC[C@]43C)[C@H]12 [URSOLIC ACID]	100 (≈ 219 µM)	inactive
CC(=O)O[C@H]1CC[C@]2(C)[C@H]3CC=C4[C@@H]5CC(C)(C)CC[C@]5(C)CC[C@@]4(C)[C@]3(C)CC[C@H]2C1(C)C [beta-AMYRIN ACETATE]	100	inactive
CC1(C)CC[C@]2(C)CC[C@]3(C)C(=CC[C@@H]4[C@@]5(C)CC[C@H](O)C(C)(C)[C@@H]5CC[C@]43C)[C@@H]2C1 [beta-AMYRIN]	100 (≈ 234 µM)	inactive
